How the values were obtained:
Format in all cases: cell-based
[1] = tested on: human sebaceous glands; test: Viability test (resazurin) of micro-dissected human sebaceous glands
Protocol: To better understand the response to the extract, a viability test was performed in parallel at day 1 and day 6 of organ culture. Resazurin was added to the wells (1:11) and let incubate for 2 hours. At the end of the incubation an aliquot of the medium was read with a fluorometer (excitation: 560 nm, emission: 590 nm). The medium was then replaced with normal medium for 2 hours in order to eliminate residual resazurin. After this the medium was replaced again with medium containing the test samples. The viability in each well was measured as the difference in percentage between day 6 and day 1.
The same experimental set-up as described in Example 3 was used to evaluate the combination of Tetraselmis suecica extract and niacinamide for synergistic activity.

[2] = tested on: human sebaceous glands; test: Total lipid content of micro-dissected ex vivo human sebaceous glands (organ culture); details: extract 0.3 ppm, Capsaicin 5 μM (=1.5 ppm), lipids normalized to proteins
Protocol: Organ culture of human sebaceous glands micro-dissected from human skin explants was performed to evaluate the modulatory activity of Tetraselmis suecica extract prepared according to the description given in Example 1 on the sebum level. The extract is employed in the dried form. After removal of the epidermis of the full thickness skin sample, the sebaceous glands were carefully removed using micro-scissors and scalpel. The micro-dissected sebaceous glands were then pooled in groups of 8 and cultured up to day 6 in a 24 well plate immersed in 500 μl of modified Williams' E medium. After 24 hours of acclimation the culture medium was changed and substituted with the medium containing the extract to be tested. The medium was renewed at day 3 and 5 of culture. At day 6 the glands were collected and used for the quantification of lipids and proteins. […] To do so, each sebaceous glands group was homogenized in 100 μl of isopropyl alcohol to extract lipids and let the proteins undissolved. After centrifugation the supernatant containing the extracted sebum was collected and analyzed. The remaining pellet was dried using a vacuum dry evaporator and then minced in presence of 50 μl of protein lysis buffer. After an appropriate incubation time, this extractive mixture was centrifuged, and the supernatant was collected and analyzed. The lipids dissolved in isopropyl alcohol and the proteins dissolved in the lysis buffer were quantified by infrared spectroscopy using a Direct Detect IR Spectrometer (Millipore). The total lipid amount was obtained by normalizing the quantified lipids upon the quantified proteins (i.e. mg of lipids/mg of proteins). The amounts of normalized lipids, i.e. the sebum produced by each group of sebaceous glands, obtained from the treated groups was compared to that of the untreated control group and the modulatory activity was calculated in percentage. […] For statistical analysis, differences among groups were evaluated by one-way anova with permutation test followed by Dunnett's permutation test. […]

[3] = tested on: human sebaceous glands; test: Synergistic effect of Tetraselmis suecica extract and niacinamide on total lipid content of ex vivo human sebaceous glands (Kull's equation); details: Donor 1 (Example 4); 0.3 ppm extract, 100 ppm niacinamide, or 0.15 ppm extract + 50 ppm niacinamide

With `COc1cc(CNC(=O)CCCC/C=C/C(C)C)ccc1O` [Capsaicin] the Viability ([1]; Donor 1, day 6 versus day 1, extract 0.3 ppm, Capsaicin 5 μM (1.5 ppm), untreated 93) was 92%, the Viability ([1]; Donor 2, day 6 versus day 1, extract 0.3 ppm, Capsaicin 5 μM (1.5 ppm), untreated 100) was 99% and the Viability ([1]; Donor 3, day 6 versus day 1, extract 0.3 ppm, Capsaicin 5 μM (1.5 ppm), untreated 81) was 85%. The “Reduction of lipids at day 6 versus untreated” value (“Reduction of lipids” for short) ([2]; Donor 1) was 11%, the “Reduction of lipids” value ([2]; Donor 2) was 28% and the “Reduction of lipids” value ([2]; Donor 3) was 14%.
With `NC(=O)c1cccnc1` [niacinamide, Niacinamide] the Viability ([1]; Donor 1 (Example 4), 0.3 ppm extract, 100 ppm niacinamide, or 0.15 ppm extract + 50 ppm niacinamide, untreated 81) was 78% and the “Reduction of lipids” value [3] was 6%.
